Patent publication US9322066B2, “Predictors for cancer treatment” (priority 2011, dated 2016)

Tested on: relapsed or refractory, rituximab-naive or -sensitive follicular B-cell NHL
Assay: Progression-free survival (PFS), Vc-R vs rituximab study, by biomarker
Assay type: in vivo, human
Source text: Non-Hodgkin lymphoma (NHL) encompasses several unique malignant lymphoid disease entities that vary in clinical behavior, morphologic appearance, immunologic, and molecular phenotype. […] A randomized, open-label, active-controlled, multicenter, multinational, prospective study to compare the efficacy and safety of the combination of bortezomib and rituximab (Vc-R) to single-agent rituximab in subjects who have relapsed or refractory, rituximab-naive or -sensitive follicular B-cell NHL was performed.
Subjects were centrally randomized to Treatment Groups A (Vc-R) or B (rituximab) in a 1:1 ratio taking into account the following stratification factors: • Follicular Lymphoma International Prognostic Index (FLIPI) score (low [0 or 1 factor], intermediate [2 factors], high [≧3 factors]); • Prior rituximab therapy (yes, no); • Time since last dose of anti-lymphoma therapy (≦1 year, >1 year); • Region (United States/Canada, European Union, Rest of World).
The following clinical endpoints were included in the analysis within each treatment group and an overall comparison was made with the biomarker-related endpoints: Progression-free survival, defined as the interval between the date of randomization and the date of progressive disease (PD) or death, whichever is first reported in the ITT population; overall survival; overall response rate (complete response [CR]+CR unconfirmed [CRu]+partial response [PR]); overall CR rate (CR+CRu); duration of response; time to next anti-lymphoma therapy; and treatment free interval.
For single-marker association analyses and pair-wise comparisons, a log rank test and Cox proportional hazard model was utilized for assessments of PFS, TTP, and OS between the treatment groups. Kaplan-Meier curves were utilized to estimate the distribution differences between groups in the time-to-event analyses. Comparison of the response rates between the treatment groups was conducted using the Fishers exact test. Single-marker association analyses were stratified by the covariates.
For pair-wise comparison analysis, biomarker pairs were formed by combinations of two markers. A log rank test was utilized for assessments of PFS, TTP, and OS between the treatment groups in the subpopulation defined by biomarker pairs. Kaplan-Meier curves were utilized to estimate the distribution differences between groups in the time-to-event analyses. Comparison of the response rates between the treatment groups was conducted using the Fishers exact test. Methods of Analysis for the multiple biomarker comparison models can be found in section 4.6.
The stratified log rank test and Cox proportional hazard model was utilized for assessments of PFS between the treatment groups. The Kaplan-Meier method was to be used to estimate the distribution of overall PFS for each treatment group in the biomarker population, and overall; stratified by expression level, SNP, or mutation (or covariate groups as noted above). The hazard ratio and 95% confidence interval was based on a stratified Cox's proportion hazard model with treatment as the explanatory variable. Analyses were done for the population overall and by treatment group, and each of these analyses were also stratified by the following factors if sufficient sample size existed: […]

## rituximab
20S % NUCLEAR STAINING 30-90 + 20S INTENSITY CYTOPLASMIC SIGNAL >=3+, Excluded
  Median PFS (Vc − R vs R): 347 days
20S % NUCLEAR STAINING 30-90 + 20S INTENSITY CYTOPLASMIC SIGNAL >=3+, Selected
  Median PFS (Vc − R vs R): 280 days
20S % NUCLEAR STAINING 30-90 + 20S INTENSITY CYTOPLASMIC SIGNAL >=3+, Total
  Median PFS (Vc − R vs R): 345 days
AGEGRP <=65 + CD68 POSITIVE FOLLICULAR 0-50, Excluded
  Median PFS (Vc-R vs R): 427 days
AGEGRP <=65 + CD68 POSITIVE FOLLICULAR 0-50, Selected
  Median PFS (Vc-R vs R): 275 days
AGEGRP <=65 + CD68 POSITIVE FOLLICULAR 0-50, Total
  Median PFS (Vc-R vs R): 346 days
AGEGRP <=65 + CD68 POSITIVE PERIFOLLICULAR 0-50, Excluded
  Median PFS (Vc − R vs R): 351 days
AGEGRP <=65 + CD68 POSITIVE PERIFOLLICULAR 0-50, Selected
  Median PFS (Vc − R vs R): 281 days
AGEGRP <=65 + CD68 POSITIVE PERIFOLLICULAR 0-50, Total
  Median PFS (Vc − R vs R): 346 days
AGEGRP <=65 + P27 % NUCLEI POSITIVE 0-70, Excluded
  Median PFS (Vc − R vs R): 348 days
AGEGRP <=65 + P27 % NUCLEI POSITIVE 0-70, Selected
  Median PFS (Vc − R vs R): 279 days
AGEGRP <=65 + P27 % NUCLEI POSITIVE 0-70, Total
  Median PFS (Vc − R vs R): 345 days
Biomarker Negative (all subjects without the pair), N = 238
  PFS median: 12.5 months
Biomarker Positive (PSMB P11A heterozygote and CD68 Low), N = 118
  PFS median: 9.1 months
CD68 OVERALL POSITIVE 0-25
  PFS median: 10.6 mo
CD68 OVERALL POSITIVE 26-50
  PFS median: 9.3 mo
CD68 POSITIVE FOLLICULAR 0-25
  PFS median: 9.3 mo
CD68 POSITIVE FOLLICULAR 0-50 + CD68 POSITIVE PERIFOLLICULAR 0-50, Excluded
  Median PFS (Vc − R vs R): 351 days
CD68 POSITIVE FOLLICULAR 0-50 + CD68 POSITIVE PERIFOLLICULAR 0-50, Selected
  Median PFS (Vc − R vs R): 282 days
CD68 POSITIVE FOLLICULAR 0-50 + CD68 POSITIVE PERIFOLLICULAR 0-50, Total
  Median PFS (Vc − R vs R): 346 days
CD68 POSITIVE FOLLICULAR 0-50 + P65 % POSITIVE CYTOPLASMIC SIGNAL >90%, Excluded
  Median PFS (Vc − R vs R): 486 days
CD68 POSITIVE FOLLICULAR 0-50 + P65 % POSITIVE CYTOPLASMIC SIGNAL >90%, Selected
  Median PFS (Vc − R vs R): 279 days
CD68 POSITIVE FOLLICULAR 0-50 + P65 % POSITIVE CYTOPLASMIC SIGNAL >90%, Total
  Median PFS (Vc − R vs R): 346 days
CD68 POSITIVE FOLLICULAR 26-50
  PFS median: 9.1 mo
CD68 Pos Follic (0-50) & P11A[C/G]**, first line (P 0.0025)
  PFS median: 8.5 mo
CD68 Pos Follic (0-50) & P11A[C/G]**, second line (n.s.)
  PFS median: 9.2 mo
CD68 high
  PFS: did better on rituximab alone
Excluded: 20S % NUCLEAR STAINING 30-90 and P65 % POSITIVE CYTOPLASMIC SIGNAL >90%
  Median PFS (Vc-R vs R): 419 days
Excluded: AGEGRP <=65 and CD68 OVERALL POSITIVE 0-50
  Median PFS (Vc-R vs R): 351 days
Excluded: AGEGRP <=65 and P65 % POSITIVE CYTOPLASMIC SIGNAL >90%
  Median PFS (Vc-R vs R): 414 days
Excluded: CD68 OVERALL POSITIVE 0-50 and P65 % POSITIVE C[…] >90%
  Median PFS (Vc-R vs R): 375 days
Excluded: FLIPI High and P65 % POSITIVE CYTOPLASMIC SIGNAL >90%
  Median PFS (Vc-R vs R): 378 days
Excluded: PRITUX NO and P65 % NUCLEAR STAINING 0
  Median PFS (Vc-R vs R): 346 days
Excluded: PSMB1/P11A C/G and ANNARBOR >=III
  Median PFS (Vc-R vs R): 375 days
Excluded: PSMB1/P11A C/G and P65 % NUCLEAR STAINING 0
  Median PFS (Vc-R vs R): 346 days
FLIPI High + P27 % NUCLEI POSITIVE 0-70, Excluded
  Median PFS (Vc − R vs R): 351 days
FLIPI High + P27 % NUCLEI POSITIVE 0-70, Selected
  Median PFS (Vc − R vs R): 212 days
FLIPI High + P27 % NUCLEI POSITIVE 0-70, Total
  Median PFS (Vc − R vs R): 345 days
HI Tumor BD NO & CD68 OVERALL POSITIVE: 0-50
  PFS median: 16 mo
HI Tumor BD NO & CD68 POSITIVE FOLLICULAR: 0-50
  PFS median: 13.8 mo
P65 Cytoplasmic signal >90% & 1 prior treatment*, first line (P 0.0132)
  PFS median: 10.6 mo
P65 Cytoplasmic signal >90% & 1 prior treatment*, second line (n.s.)
  PFS median: 8.9 mo
P65 INTENSITY CYTOPLASMIC SIGNAL <=1+
  PFS median: 9.3 mo
PSMB1/P11A C/G
  PFS median: 9.3 mo
PSMB1/P11A C/G & 20S % POSITIVE CYTOPLASMIC SIGNAL: >90
  PFS median: 9.5 mo
PSMB1/P11A C/G & Age group: <=65
  PFS median: 9.2 mo
PSMB1/P11A C/G & CD68 POSITIVE FOLLICULAR: 0-50
  PFS median: 9.1 mo
PSMB1/P11A C/G & CD68 POSITIVE PERIFOLLICULAR: >50
  PFS median: 9.2 mo
PSMB1/P11A C/G & PSMB5/R24C C/T
  PFS median: 7.8 mo
PSMB1/P11A C/G & Time since last Rx: >1 year
  PFS median: 10.7 mo
PSMB1/P11A C/G + 20S % NUCLEAR STAINING 30-90, Excluded
  Median PFS (Vc-R vs R): 346 days
PSMB1/P11A C/G + 20S % NUCLEAR STAINING 30-90, Selected
  Median PFS (Vc-R vs R): 275 days
PSMB1/P11A C/G + 20S % NUCLEAR STAINING 30-90, Total
  Median PFS (Vc-R vs R): 345 days
PSMB1/P11A C/G + 20S INTENSITY CYTOPLASMIC SIGNAL <=2+, Excluded
  Median PFS (Vc-R vs R): 345 days
PSMB1/P11A C/G + 20S INTENSITY CYTOPLASMIC SIGNAL <=2+, Selected
  Median PFS (Vc-R vs R): 278 days
PSMB1/P11A C/G + 20S INTENSITY CYTOPLASMIC SIGNAL <=2+, Total
  Median PFS (Vc-R vs R): 345 days
PSMB1/P11A C/G + AGEGRP <=65, Excluded
  Median PFS (Vc-R vs R): 348 days
PSMB1/P11A C/G + AGEGRP <=65, Selected
  Median PFS (Vc-R vs R): 279 days
PSMB1/P11A C/G + AGEGRP <=65, Total
  Median PFS (Vc-R vs R): 345 days
PSMB1/P11A C/G + CD68 OVERALL POSITIVE 0-50, Excluded
  Median PFS (Vc − R vs R): 348 days
PSMB1/P11A C/G + CD68 OVERALL POSITIVE 0-50, Selected
  Median PFS (Vc − R vs R): 278 days
PSMB1/P11A C/G + CD68 OVERALL POSITIVE 0-50, Total
  Median PFS (Vc − R vs R): 345 days
PSMB1/P11A C/G + P27 % NUCLEI POSITIVE 0-70, Excluded
  Median PFS (Vc-R vs R): 348 days
PSMB1/P11A C/G + P27 % NUCLEI POSITIVE 0-70, Selected
  Median PFS (Vc-R vs R): 277 days
PSMB1/P11A C/G + P27 % NUCLEI POSITIVE 0-70, Total
  Median PFS (Vc-R vs R): 338 days
PSMB1/P11A C/G + P27 SIGNAL INTENSITY >=2+, Excluded
  Median PFS (Vc-R vs R): 346 days
PSMB1/P11A C/G + P27 SIGNAL INTENSITY >=2+, Selected
  Median PFS (Vc-R vs R): 280 days
PSMB1/P11A C/G + P27 SIGNAL INTENSITY >=2+, Total
  Median PFS (Vc-R vs R): 338 days
